Experiments:
GABAA receptor = conditions: cited from earlier work
[1] = cited from earlier work
[2] = In vivo biodistribution in naive male Sprague-Dawley rats; conditions: rat; for Time at which regional differentiation remained apparent / Pituitary gland / Thalamus: male, Sprague-Dawley; for Time at which regional differentiation remained apparent / Pituitary gland / Thalamus / Clearance from whole brain after peak uptake: in vivo; for Whole brain uptake, peak: at the time of peak; for Regional differentiation between GABA-rich and GABA-poor regions of the brain: in vivo biodistribution; for Cerebellum / Hippocampus / Pons/Medulla / Pre-frontal cortex / Striatum: lateral tail vein, mean (SD), n = 3; for Pre-frontal cortex: thalmus: ratio
Protocol: Adult male Sprague-Dawley rats (body weight 202±37 g; mean±SD) were injected with between 1 and 5 MBq of [^18F]-Compound 1 via a lateral tail vein. All animals were conscious, but lightly restrained during injection and subsequently housed in short-term metabolism cages. At the appropriate time point; 30 seconds, 2, 10, 30 and 60 minutes post-injection (pi) (n=3 per time point), the animals were sacrificed by cervical dislocation. The brain and peripheral tissues or fluids were sampled post-mortem. Radioactivity in the brain samples was measured using a Wallac gamma counter. Once assayed, the brain samples, along with the remaining organ or tissue samples were assayed using a twin-crystal gamma-counter system (BASIL), with automatic correction for radioactive decay.
The biodistribution protocol described in Example 6 for Compound 1 was used to assess Compound 2.

In the case of CN1Cc2c(C(=O)OCC[18F])ncn2-c2ccc(F)cc2C1=O [[18F]FFMZ, [18F]fluoroflumazenil], the “Selective binding to GABAA receptors” value (GABAA receptor; reported in prior art) is given as “high selective binding” and the Brain uptake ([1]; reported in prior art) is given as “high”.

In the case of CN1Cc2c(C(=O)OC(C)(C)C)ncn2-c2ccc(OCC[18F])cc2C1=O [[18F]-Compound 2], the “Time at which regional differentiation remained apparent” value [2] is reported as 10 minutes pi, the Pituitary gland ([2]; 0.5 min) is reported as 0.82 (0.21) % id/g and the Thalamus ([2]; 0.5 min) is reported as 0.67 (0.12) % id/g. For the same compound, the Pituitary gland ([2]; 2 min) was 1.07 (0.19) % id/g, the Thalamus ([2]; 2 min) was 0.78 (0.20) % id/g and the Pituitary gland ([2]; 10 min) was 0.69 (0.11) % id/g. The Thalamus ([2]; 10 min) was 0.69 (0.12) % id/g, the Pituitary gland ([2]; 30 min) was 0.64 (0.04) % id/g and the Thalamus ([2]; 30 min) was 0.62 (0.12) % id/g. The Pituitary gland ([2]; 60 min) was 0.51 (0.04) % id/g, the Thalamus ([2]; 60 min) was 0.49 (0.02) % id/g and the “Time of peak whole brain uptake” value [2] was 2 minutes pi. For the same compound, the “Whole brain uptake, peak” value [2] was 0.82%, the “Clearance from whole brain after peak uptake” value [2] was “slow with a decreasing rate” and the “Regional differentiation between GABA-rich and GABA-poor regions of the brain” value [2] was “good”. For the same compound, the Cerebellum ([2]; 0.5 min post-injection) was 0.75 (0.10) % id/g, the Hippocampus ([2]; 0.5 min post-injection) was 0.63 (0.08) % id/g and the Pons/Medulla ([2]; 0.5 min post-injection) was 0.58 (0.09) % id/g. For the same compound, the Pre-frontal cortex ([2]; 0.5 min post-injection) was 0.80 (0.05) % id/g, the Striatum ([2]; 0.5 min post-injection) was 0.63 (0.05) % id/g and the Cerebellum ([2]; 2 min post-injection) was 0.82 (0.19) % id/g. For the same compound, the Hippocampus ([2]; 2 min post-injection) was 0.89 (0.20) % id/g, the Pons/Medulla ([2]; 2 min post-injection) was 0.61 (0.14) % id/g and the Pre-frontal cortex ([2]; 2 min post-injection) was 1.07 (0.29) % id/g. For the same compound, the Striatum ([2]; 2 min post-injection) was 0.71 (0.16) % id/g, the Cerebellum ([2]; 10 min post-injection) was 0.74 (0.08) % id/g and the Hippocampus ([2]; 10 min post-injection) was 0.94 (0.06) % id/g. For the same compound, the Pons/Medulla ([2]; 10 min post-injection) was 0.56 (0.09) % id/g, the Pre-frontal cortex ([2]; 10 min post-injection) was 1.04 (0.15) % id/g and the Striatum ([2]; 10 min post-injection) was 0.61 (0.10) % id/g. The Cerebellum ([2]; 30 min post-injection) was 0.59 (0.06) % id/g, the Hippocampus ([2]; 30 min post-injection) was 0.75 (0.03) % id/g and the Pons/Medulla ([2]; 30 min post-injection) was 0.52 (0.05) % id/g. The Pre-frontal cortex ([2]; 30 min post-injection) was 0.75 (0.06) % id/g, the Striatum ([2]; 30 min post-injection) was 0.55 (0.096) % id/g and the Cerebellum ([2]; 60 min post-injection) was 0.47 (0.02) % id/g. For the same compound, the Hippocampus ([2]; 60 min post-injection) was 0.53 (0.01) % id/g, the Pons/Medulla ([2]; 60 min post-injection) was 0.45 (0.02) % id/g and the Pre-frontal cortex ([2]; 60 min post-injection) was 0.51 (0.03) % id/g. For the same compound, the Striatum ([2]; 60 min post-injection) was 0.45 (0.02) % id/g, the “Pre-frontal cortex: thalmus” value ([2]; 0.5 min post-injection) was 1.22 and the “Pre-frontal cortex: thalmus” value ([2]; 2 min post-injection) was 1.36. For the same compound, the “Pre-frontal cortex: thalmus” value ([2]; 10 min post-injection) was 1.51, the “Pre-frontal cortex: thalmus” value ([2]; 30 min post-injection) was 1.23 and the “Pre-frontal cortex: thalmus” value ([2]; 60 min post-injection) was 1.05.

For CCOC(=O)c1ncn2c1CN(C)C(=O)c1cc([18F])ccc1-2 [[18F]FMZ, [18F]flumazenil], the Ki (GABAA receptor; prior art statement) is given as ~500 pM.

For CCOC(=O)c1ncn2c1CN(C)C(=O)c1cc(OCC[18F])ccc1-2 [[18F]-Compound 1], the “Time at which regional differentiation remained apparent” value [2] was 30 minutes pi, the Pituitary gland ([2]; 0.5 min) was 0.60 (0.1) % id/g and the Thalamus ([2]; 0.5 min) was 0.30 (0.11) % id/g. The Pituitary gland ([2]; 2 min) was 0.69 (0.13) % id/g, the Thalamus ([2]; 2 min) was 0.47 (0.07) % id/g and the Pituitary gland ([2]; 10 min) was 0.55 (0.10) % id/g. For the same compound, the Thalamus ([2]; 10 min) was 0.39 (0.05) % id/g, the Pituitary gland ([2]; 30 min) was 0.30 (0.02) % id/g and the Thalamus ([2]; 30 min) was 0.24 (0.05) % id/g. The Pituitary gland ([2]; 60 min) was 0.26 (0.08) % id/g, the Thalamus ([2]; 60 min) was 0.20 (0.07) % id/g and the “Time of peak whole brain uptake” value [2] was 10 minutes pi. For the same compound, the “Whole brain uptake, peak” value [2] was 0.9%, the “Clearance from whole brain after peak uptake” value [2] was “slow with a decreasing rate” and the “Regional differentiation between GABA-rich and GABA-poor regions of the brain” value [2] was “good”. For the same compound, the Cerebellum ([2]; 0.5 min post-injection) was 0.28 (0.06) % id/g, the Hippocampus ([2]; 0.5 min post-injection) was 0.26 (0.08) % id/g and the Pons/Medulla ([2]; 0.5 min post-injection) was 0.23 (0.04) % id/g. For the same compound, the Pre-frontal cortex ([2]; 0.5 min post-injection) was 0.33 (0.1) % id/g, the Striatum ([2]; 0.5 min post-injection) was 0.26 (0.07) % id/g and the Cerebellum ([2]; 2 min post-injection) was 0.43 (0.03) % id/g. For the same compound, the Hippocampus ([2]; 2 min post-injection) was 0.43 (0.06) % id/g, the Pons/Medulla ([2]; 2 min post-injection) was 0.34 (0.02) % id/g and the Pre-frontal cortex ([2]; 2 min post-injection) was 0.57 (0.02) % id/g. The Striatum ([2]; 2 min post-injection) was 0.41 (0.04) % id/g, the Cerebellum ([2]; 10 min post-injection) was 0.36 (0.05) % id/g and the Hippocampus ([2]; 10 min post-injection) was 0.43 (0.07) % id/g. For the same compound, the Pons/Medulla ([2]; 10 min post-injection) was 0.28 (0.05) % id/g, the Pre-frontal cortex ([2]; 10 min post-injection) was 0.53 (0.09) % id/g and the Striatum ([2]; 10 min post-injection) was 0.36 (0.04) % id/g. For the same compound, the Cerebellum ([2]; 30 min post-injection) was 0.23 (0.04) % id/g, the Hippocampus ([2]; 30 min post-injection) was 0.32 (0.05) % id/g and the Pons/Medulla ([2]; 30 min post-injection) was 0.18 (0.04) % id/g. For the same compound, the Pre-frontal cortex ([2]; 30 min post-injection) was 0.35 (0.07) % id/g, the Striatum ([2]; 30 min post-injection) was 0.21 (0.04) % id/g and the Cerebellum ([2]; 60 min post-injection) was 0.20 (0.05) % id/g. For the same compound, the Hippocampus ([2]; 60 min post-injection) was 0.26 (0.07) % id/g, the Pons/Medulla ([2]; 60 min post-injection) was 0.19 (0.05) % id/g and the Pre-frontal cortex ([2]; 60 min post-injection) was 0.24 (0.06) % id/g. For the same compound, the Striatum ([2]; 60 min post-injection) was 0.18 (0.04) % id/g, the “Pre-frontal cortex: thalmus” value ([2]; 0.5 min post-injection) was 1.13 and the “Pre-frontal cortex: thalmus” value ([2]; 2 min post-injection) was 1.23. The “Pre-frontal cortex: thalmus” value ([2]; 10 min post-injection) was 1.35, the “Pre-frontal cortex: thalmus” value ([2]; 30 min post-injection) was 1.44 and the “Pre-frontal cortex: thalmus” value ([2]; 60 min post-injection) was 1.21.

In the case of CCOC(=O)c1ncn2c1CN(CC[18F])C(=O)c1cc(F)ccc1-2 [[18F]FEFMZ, [18F]fluoroethylflumazenil], the “Clearance following administration in vivo” value ([1]; in vivo) is given as “too rapid”.
